Measured values from ChEMBL document CHEMBL5038588 (J Med Chem, 2021).
One block for each molecule: values may come before it.

Legend:
BaF3 [1] = experiment: Inhibition of cell proliferation in mouse BaF3 cells expressing BCR-ABL T315I mutant assessed as cell viability at 100 uM measured after 48 hrs by trypan blue based assay (RVB=100%); assay type: functional; details: read-out: Activity
KU812 cell line = experiment: Cytotoxicity against human KU812 cells assessed as inhibition of cell growth measured after 72 hrs by MTT assay; assay type: functional, cell-based; details: KU812, 72 h
U-937 = experiment: Cytotoxicity against human U-937 cells assessed as inhibition of cell growth measured after 72 hrs by MTT assay; assay type: functional, cell-based; details: U-937, 72 h
Jurkat = experiment: Cytotoxicity against human Jurkat cells assessed as inhibition of cell growth measured after 72 hrs by MTT assay; assay type: functional, cell-based
BaF3 [2] = experiment: cells; details: Mus musculus, BaF3, 72 h
Description: Cytotoxicity against mouse BAF3 cells expressing native BCR-ABL assessed as inhibition of cell growth measured after 72 hrs by MTT assay

BaF3 [3] = experiment: cells; details: Mus musculus, BaF3, 48 h
Description: Cytotoxicity against mouse BAF3 cells expressing BCR-ABL T315I mutant assessed as inhibition of cell growth measured after 48 hrs by trypan blue assay

K562 = experiment: cells; details: Homo sapiens, K562, 72 h
Description: Cytotoxicity against human K562 cells assessed as cell growth inhibition measured after 72 hrs by MTT assay

[4] = Toxicity in BALB/c nude mouse xenografted with BaF3 cells expressing BCR-ABL T315I mutant assessed as effect on body weight at 2.5 to 10 mg/kg, po administered once daily for 15 days; assay type: organism-based; details: in vivo, 360 h, dose 2.5-10 mg/kg, time 15 day

Compound: CN1CCN(Cc2ccc(NC(=O)N3CCCC(C#Cc4cnc5cccnn45)C3)cc2C(F)(F)F)CC1 (stereo not given)
viability at 100 µM (BaF3 [1]): 84.3%

IC50 (BaF3 [2]): 3.5 nM
IC50 (BaF3 [3]): 12.4 nM
IC50 (K562): 0.6 nM
Compound: Cc1ccc(C(=O)Nc2ccc3c(c2)C(F)(F)C[C@@H]3N2CCN(C)CC2)cc1C#Cc1cnc(NC2CC2)nc1
IC50 (KU812 cell line): 0.2 nM
IC50 (U-937): 165 nM
IC50 (Jurkat): 280 nM

Compound: Cc1ccc(-c2nc3ccc(CN4CCN(C)CC4)cc3[nH]2)cc1C#Cc1cnc(NC2CC2)nc1
viability at 100 µM (BaF3 [1]): 90.4%

Compound: Cc1ccc(C(=O)Nc2ccc3c(c2)C(F)(F)C[C@@H]3N2CCN(C)CC2)cc1C#Cc1cnc2cccnn12.Cl
Activity [4]: Non-Toxic

Compound: Cc1ccc(C(=O)Nc2ccc3c(c2)C(F)(F)C(N2CCN(C)CC2)C3)cc1C#Cc1cnc2cccnn12 (stereo not given)
viability at 100 µM (BaF3 [1]): 91.5%
